Where a name gives a salt, the structure may show the parent alone. Calls of active or inactive are those of the source.
Columns and labels:
Estrogen receptor beta = Estrogen receptor beta (Homo sapiens, UniProt Q92731);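 note: recombinant ER-beta bound to coactivator SRC1 peptide in presence of estradiol agonist; inhibitors block coactivator peptide binding and lower the FRET signal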
Escherichia coli = experiment: microbe, parasite or virus in culture
[1] = target: T1, High affinity choline transporter 1 (Homo sapiens, UniProt Q9GZV3); experiment: human choline transporter blockers, potency – cell-based, 5-point CRC, membrane potential dye, dose response (AID 504840); format: functional
T1 sequence (Q9GZV3 whole entry): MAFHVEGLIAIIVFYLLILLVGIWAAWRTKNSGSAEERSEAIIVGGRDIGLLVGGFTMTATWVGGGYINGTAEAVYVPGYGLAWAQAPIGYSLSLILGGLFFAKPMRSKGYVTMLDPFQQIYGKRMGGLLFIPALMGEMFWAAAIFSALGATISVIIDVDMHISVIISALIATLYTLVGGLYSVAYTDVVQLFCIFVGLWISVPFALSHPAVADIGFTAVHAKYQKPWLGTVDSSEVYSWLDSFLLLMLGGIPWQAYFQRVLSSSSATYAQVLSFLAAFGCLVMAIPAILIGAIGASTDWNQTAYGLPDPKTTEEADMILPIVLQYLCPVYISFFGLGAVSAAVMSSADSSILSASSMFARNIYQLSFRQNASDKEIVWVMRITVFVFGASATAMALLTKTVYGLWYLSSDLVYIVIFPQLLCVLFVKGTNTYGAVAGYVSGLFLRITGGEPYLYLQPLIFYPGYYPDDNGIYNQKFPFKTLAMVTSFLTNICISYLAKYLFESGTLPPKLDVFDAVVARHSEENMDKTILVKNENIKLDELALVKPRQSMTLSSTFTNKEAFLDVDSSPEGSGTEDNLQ

[2] = target: T1, High affinity choline transporter 1; experiment: human choline transporter blockers, potency – cell-based, 10-point CRC, membrane potential dye, dose response (AID 588401); format: functional;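 note: membrane potential dye fluorescence of choline-evoked depolarization via CHT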
[3] = Luminescence Cell-Based Dose Retest to Confirm Inhibitors of Cancer Stem Cells. [Related pubchem assays (depositor defined):AID2717, AID2721]; format: functional; details: Homo sapiens
Bcl-2-related protein A1 = target: T2, Bcl-2-related protein A1 (Mus musculus, UniProt Q07440); format: functional;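 note: confirmatory dose–response counterscreen on Bfl-1, used to check hits from a UBC13 polyubiquitin inhibitor campaign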
T2 sequence (Q07440 whole entry): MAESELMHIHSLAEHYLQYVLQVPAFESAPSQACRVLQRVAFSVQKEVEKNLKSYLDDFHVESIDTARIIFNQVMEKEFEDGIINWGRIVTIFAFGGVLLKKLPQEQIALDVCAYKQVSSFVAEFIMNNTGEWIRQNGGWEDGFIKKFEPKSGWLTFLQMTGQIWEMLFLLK

[4] = target: T3, Ubiquitin-conjugating enzyme E2 N (Homo sapiens, UniProt P61088); format: functional
T3 sequence (P61088 whole entry): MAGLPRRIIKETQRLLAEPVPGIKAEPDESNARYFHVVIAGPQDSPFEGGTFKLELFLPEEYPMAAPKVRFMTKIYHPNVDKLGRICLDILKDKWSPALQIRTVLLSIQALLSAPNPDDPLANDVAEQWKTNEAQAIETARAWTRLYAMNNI

[5] = target: T3, Ubiquitin-conjugating enzyme E2 N; format: functional; remark: listed apart in the source
[6] = viability loss in HeLa cells – cytotoxicity control for MgcRacGAP inhibitor project, dose response (AID 624300); format: functional
[7] = target: T4, Rac GTPase-activating protein 1 (Homo sapiens, UniProt Q9H0H5); experiment: blockers of MgcRacGAP-driven Rac1 GTP hydrolysis – biochemical, ADP Hunter fluorescence, primary and confirmatory, confirmation (AID 624330); format: functional
T4 sequence (Q9H0H5 whole entry): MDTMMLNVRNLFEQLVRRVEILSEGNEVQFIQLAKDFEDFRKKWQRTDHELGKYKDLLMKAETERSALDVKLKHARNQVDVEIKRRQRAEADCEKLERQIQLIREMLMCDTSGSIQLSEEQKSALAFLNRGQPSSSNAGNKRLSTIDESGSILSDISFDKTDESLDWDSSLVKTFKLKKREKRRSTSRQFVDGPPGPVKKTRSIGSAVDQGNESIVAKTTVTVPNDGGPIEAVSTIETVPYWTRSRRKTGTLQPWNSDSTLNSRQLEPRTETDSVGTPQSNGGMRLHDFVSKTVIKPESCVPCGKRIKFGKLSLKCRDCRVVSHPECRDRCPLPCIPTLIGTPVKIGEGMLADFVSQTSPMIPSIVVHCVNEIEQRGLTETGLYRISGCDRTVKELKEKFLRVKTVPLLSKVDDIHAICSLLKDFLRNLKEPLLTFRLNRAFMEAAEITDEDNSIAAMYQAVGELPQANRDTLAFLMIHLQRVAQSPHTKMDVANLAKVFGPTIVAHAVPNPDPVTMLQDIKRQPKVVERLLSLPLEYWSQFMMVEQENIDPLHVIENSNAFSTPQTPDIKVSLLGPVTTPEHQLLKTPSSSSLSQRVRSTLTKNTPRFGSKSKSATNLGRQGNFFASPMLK

[8] = system: Streptococcus sp. 'group A'; experiment: Streptococcus pyogenes SK(-)GAS viability under kanamycin – luminescence, BacTiterGlo, confirmation, counter-screen for streptokinase expression inhibitor project, dose response (AID 1900); format: functional, organism-based
Streptococcus = experiment: GAS UMAA2166 growth inhibition – luminescence, BacTiterGlo, counter-screen for streptokinase expression inhibitor project, dose response (AID 1915); format: functional, organism-based;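 note: potency for reduction of bacterial viability or growth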
[9] = target: T5, Apoptotic protease-activating factor 1 (Homo sapiens, UniProt O14727); format: functional
T5 sequence (O14727 whole entry): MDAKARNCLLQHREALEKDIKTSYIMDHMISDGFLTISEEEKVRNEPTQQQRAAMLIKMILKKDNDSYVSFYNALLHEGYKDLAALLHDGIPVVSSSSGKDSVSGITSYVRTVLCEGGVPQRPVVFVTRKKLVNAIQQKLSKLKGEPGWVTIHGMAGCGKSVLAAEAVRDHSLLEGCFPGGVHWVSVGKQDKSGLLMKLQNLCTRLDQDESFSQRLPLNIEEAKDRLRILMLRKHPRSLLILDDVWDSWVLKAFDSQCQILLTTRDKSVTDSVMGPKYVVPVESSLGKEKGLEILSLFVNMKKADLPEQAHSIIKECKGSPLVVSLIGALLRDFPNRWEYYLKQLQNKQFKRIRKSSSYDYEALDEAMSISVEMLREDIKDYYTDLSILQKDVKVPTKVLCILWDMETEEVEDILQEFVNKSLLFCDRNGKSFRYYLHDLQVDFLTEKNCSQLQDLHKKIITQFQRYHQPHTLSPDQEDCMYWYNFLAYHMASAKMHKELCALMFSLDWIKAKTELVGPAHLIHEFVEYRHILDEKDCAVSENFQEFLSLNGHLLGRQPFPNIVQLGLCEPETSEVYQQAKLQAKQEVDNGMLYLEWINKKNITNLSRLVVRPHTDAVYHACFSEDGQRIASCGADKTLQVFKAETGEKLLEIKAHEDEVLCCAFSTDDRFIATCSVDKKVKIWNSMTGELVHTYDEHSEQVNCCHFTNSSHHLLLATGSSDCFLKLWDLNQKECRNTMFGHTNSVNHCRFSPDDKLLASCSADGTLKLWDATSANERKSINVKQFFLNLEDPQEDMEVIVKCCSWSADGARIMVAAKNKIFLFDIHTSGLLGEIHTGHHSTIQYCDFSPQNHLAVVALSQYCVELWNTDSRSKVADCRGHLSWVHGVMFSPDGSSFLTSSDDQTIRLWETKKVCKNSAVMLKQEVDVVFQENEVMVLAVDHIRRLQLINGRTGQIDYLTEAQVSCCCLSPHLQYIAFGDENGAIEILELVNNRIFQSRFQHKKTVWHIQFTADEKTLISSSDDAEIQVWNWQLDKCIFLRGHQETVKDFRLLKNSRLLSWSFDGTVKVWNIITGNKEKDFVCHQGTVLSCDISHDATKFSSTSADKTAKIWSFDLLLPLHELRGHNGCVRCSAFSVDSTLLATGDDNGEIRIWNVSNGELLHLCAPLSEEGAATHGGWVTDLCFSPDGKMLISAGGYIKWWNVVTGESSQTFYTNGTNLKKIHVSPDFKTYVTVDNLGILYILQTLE

[10] = target: 26S proteasome non-ATPase regulatory subunit 14 (Homo sapiens, UniProt O00487); experiment: inhibition of proteasome subunit RPN11 – biochemical, fluorescence polarization, uHTS hits, confirmation (AID 602368); format: functional
[11] = target: 72 kDa type IV collagenase (Homo sapiens, UniProt P08253); experiment: Dose Response validation of uHTS RPN11 inhibitor hits using a MMP-2 Fluorescence assay.; format: functional
Prothrombin = Prothrombin (Bos taurus, UniProt P00735); experiment: thrombin protease inhibitors – biochemical, fluorescence polarization, uHTS hits, dose response (AID 602369); format: functional

Sequence of 72 kDa type IV collagenase (P08253 whole entry): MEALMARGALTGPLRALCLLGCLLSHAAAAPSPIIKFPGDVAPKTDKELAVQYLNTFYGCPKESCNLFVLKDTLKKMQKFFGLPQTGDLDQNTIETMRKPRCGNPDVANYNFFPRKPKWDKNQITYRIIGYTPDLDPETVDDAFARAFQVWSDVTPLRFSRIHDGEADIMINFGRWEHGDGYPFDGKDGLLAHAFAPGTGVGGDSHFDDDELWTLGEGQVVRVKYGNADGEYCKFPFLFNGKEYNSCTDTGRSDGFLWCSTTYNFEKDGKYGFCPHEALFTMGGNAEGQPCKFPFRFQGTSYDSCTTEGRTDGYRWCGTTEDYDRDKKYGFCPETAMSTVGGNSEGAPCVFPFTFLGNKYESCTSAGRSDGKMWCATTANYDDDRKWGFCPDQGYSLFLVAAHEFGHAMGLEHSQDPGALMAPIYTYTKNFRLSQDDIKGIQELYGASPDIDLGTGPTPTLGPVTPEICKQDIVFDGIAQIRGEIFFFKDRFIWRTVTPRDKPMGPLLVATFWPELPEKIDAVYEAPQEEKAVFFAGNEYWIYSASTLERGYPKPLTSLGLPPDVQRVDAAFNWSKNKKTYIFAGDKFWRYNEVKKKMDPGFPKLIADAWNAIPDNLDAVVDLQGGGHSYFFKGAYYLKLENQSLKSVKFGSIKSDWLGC
Sequence of 26S proteasome non-ATPase regulatory subunit 14 (O00487 whole entry): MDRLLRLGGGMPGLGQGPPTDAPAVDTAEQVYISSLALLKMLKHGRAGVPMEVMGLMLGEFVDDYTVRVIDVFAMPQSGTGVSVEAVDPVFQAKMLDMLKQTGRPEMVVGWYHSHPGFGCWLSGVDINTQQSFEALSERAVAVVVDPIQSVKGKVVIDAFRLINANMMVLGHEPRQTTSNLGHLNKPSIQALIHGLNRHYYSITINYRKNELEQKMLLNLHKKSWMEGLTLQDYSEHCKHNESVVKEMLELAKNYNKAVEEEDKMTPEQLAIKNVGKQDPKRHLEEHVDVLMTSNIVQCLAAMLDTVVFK
Sequence of Estrogen receptor beta (Q92731 whole entry): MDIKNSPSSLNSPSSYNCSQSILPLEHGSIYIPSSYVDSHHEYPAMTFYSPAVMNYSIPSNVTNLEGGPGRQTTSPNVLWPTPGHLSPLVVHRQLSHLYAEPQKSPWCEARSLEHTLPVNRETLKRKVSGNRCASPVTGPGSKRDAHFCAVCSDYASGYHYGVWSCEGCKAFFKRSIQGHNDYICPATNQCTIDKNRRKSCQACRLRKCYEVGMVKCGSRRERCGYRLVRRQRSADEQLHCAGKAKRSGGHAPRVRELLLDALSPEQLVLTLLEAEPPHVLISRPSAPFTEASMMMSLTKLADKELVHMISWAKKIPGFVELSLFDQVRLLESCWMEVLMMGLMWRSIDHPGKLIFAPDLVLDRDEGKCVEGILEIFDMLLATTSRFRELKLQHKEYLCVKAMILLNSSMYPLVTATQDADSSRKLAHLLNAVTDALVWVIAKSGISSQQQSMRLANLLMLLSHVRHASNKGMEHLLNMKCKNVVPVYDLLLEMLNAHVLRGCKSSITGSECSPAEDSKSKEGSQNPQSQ

SMILES	IC50 [10]	IC50 [11]	IC50 (Prothrombin)	AC50 (Escherichia coli)	IC50 (Bcl-2-related protein A1)	IC50 [4]	IC50 [5]	further results
COCC(=O)Nc1nnc(Cc2ccc(OC)cc2)s1				111 µM (active)				IC50 (Estrogen receptor beta): > 50 µM (not active)
CCN(CC)CCCn1c2c(c(SCC(=O)Nc3ccc(OC(F)(F)F)cc3)nc1=O)CCC2								IC50 [1]: 7.92 µM (active); IC50 [2]: 6.21 µM (active)
O=C(c1ccc(OCCN2CCCCC2)cc1)c1c(-c2ccc(O)cc2)sc2cc(O)ccc12 [RALOXIFENE HYDROCHLORIDE]					> 20 µM (inactive)	14.2 µM (active)	17.5 µM (active)	AC50 [3]: 1.75 µM (active); CC50 [6]: 99.6 µM (active); IC50 [7]: 27.8 µM (active)
CCn1cc(C(=O)O)c(=O)c2cc(F)c(N3CCN(C(S)=Nc4ccc(OC)cc4)CC3)cc21				2.52 µM (active)				EC50 [8]: 2.27 µM (active); EC50 (Streptococcus): 7.71 µM (active)

More lines, main results first:

IC50 [10]	IC50 [11]	IC50 (Prothrombin)	SMILES	AC50 (Escherichia coli)	IC50 (Bcl-2-related protein A1)	IC50 [4]	IC50 [5]	further results
3.31 µM (active)	> 100 µM (inactive)	79.2 µM (active)	COc1ccc(NS(=O)(=O)c2ccc(C)c(NC(=O)CN3C(=O)NC4(CCCC4)C3=O)c2)cc1		> 20 µM (inactive)	16.3 µM (active)	> 20 µM (inactive)	IC50 [9]: 23.2 µM (active)
39.7 µM (active)	> 100 µM (inactive)	36.1 µM (active)	NS(=O)(=O)c1ccc(Nc2ccc([N+](=O)[O-])c3nonc23)cc1					

From ChEMBL document CHEMBL1201862, “PubChem BioAssay data set” (2004)
